Data: paper PMC3961306, “Comparison of the Cancer Gene Targeting and Biochemical Selectivities of All Targeted Kinase Inhibitors Approved for Clinical Use” (PLoS ONE, 2014)

Assays:
Assay in all cases: Kinase profiling in a biochemical assay panel (mobility shift assays and ELISA), %-inhibition at 1 μM; selectivity entropy
[1] = biological target: panel of more than 300 wild-type and mutant kinases (313 kinase panel) (Homo sapiens, UniProt Q8N4C8); details: kinase MINK; 1 μM
[2] = biological target: panel of more than 300 wild-type and mutant kinases (313 kinase panel) (Homo sapiens, UniProt Q15208); details: kinase NDR1; 1 μM
[3] = biological target: panel of more than 300 wild-type and mutant kinases (313 kinase panel) (Homo sapiens, UniProt P24723); details: kinase PKCη; 1 μM
[4] = biological target: panel of more than 300 wild-type and mutant kinases (313 kinase panel) (Homo sapiens, UniProt Q9Y463); details: kinase DYRK1B; compound at 1 μM
[5] = biological target: panel of more than 300 wild-type and mutant kinases (313 kinase panel) (Homo sapiens, UniProt P42336); details: kinase PIK3CA/PIK3R1; 1 μM
[6] = biological target: panel of more than 300 wild-type and mutant kinases (313 kinase panel) (Homo sapiens, UniProt P22694); details: kinase PKACβ; 1 μM
[7] = biological target: panel of more than 300 wild-type and mutant kinases (313 kinase panel) (Homo sapiens, UniProt P22455, N535K); details: kinase FGFR4(N535K); compound at 1 μM
[8] = biological target: panel of more than 300 wild-type and mutant kinases (313 kinase panel) (Homo sapiens, UniProt P54764); details: kinase EPHA4; compound at 1 μM
[9] = biological target: T1, panel of more than 300 wild-type and mutant kinases (313 kinase panel) (Homo sapiens, UniProt Q06418); details: kinase TYRO3; compound at 1 μM
T1 sequence (Q06418 41-890): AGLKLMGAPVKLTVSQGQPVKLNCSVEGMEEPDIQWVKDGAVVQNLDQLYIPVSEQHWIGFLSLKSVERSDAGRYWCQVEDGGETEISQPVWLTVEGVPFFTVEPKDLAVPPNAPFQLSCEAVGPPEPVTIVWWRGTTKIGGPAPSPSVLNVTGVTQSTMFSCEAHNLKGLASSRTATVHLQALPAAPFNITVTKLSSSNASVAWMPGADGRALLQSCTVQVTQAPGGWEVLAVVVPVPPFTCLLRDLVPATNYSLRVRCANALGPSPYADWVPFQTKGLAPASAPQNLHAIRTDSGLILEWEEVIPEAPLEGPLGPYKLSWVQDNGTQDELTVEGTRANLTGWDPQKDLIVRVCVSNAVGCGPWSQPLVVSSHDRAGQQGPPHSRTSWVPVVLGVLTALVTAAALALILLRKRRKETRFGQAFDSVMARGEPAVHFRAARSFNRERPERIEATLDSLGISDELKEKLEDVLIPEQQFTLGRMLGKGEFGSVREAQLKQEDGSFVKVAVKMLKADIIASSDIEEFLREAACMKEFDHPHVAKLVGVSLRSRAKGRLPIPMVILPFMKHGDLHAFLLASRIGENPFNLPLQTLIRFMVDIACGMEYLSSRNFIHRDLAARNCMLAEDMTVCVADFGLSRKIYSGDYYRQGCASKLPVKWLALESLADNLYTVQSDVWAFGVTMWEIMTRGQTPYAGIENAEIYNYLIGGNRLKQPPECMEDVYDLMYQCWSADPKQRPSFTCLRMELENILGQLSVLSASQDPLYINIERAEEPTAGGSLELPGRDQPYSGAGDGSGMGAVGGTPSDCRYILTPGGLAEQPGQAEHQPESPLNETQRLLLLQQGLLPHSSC

[10] = biological target: T2, panel of more than 300 wild-type and mutant kinases (313 kinase panel) (Homo sapiens, UniProt P51955); details: kinase NEK2; 1 μM
T2 sequence (P51955 1-445): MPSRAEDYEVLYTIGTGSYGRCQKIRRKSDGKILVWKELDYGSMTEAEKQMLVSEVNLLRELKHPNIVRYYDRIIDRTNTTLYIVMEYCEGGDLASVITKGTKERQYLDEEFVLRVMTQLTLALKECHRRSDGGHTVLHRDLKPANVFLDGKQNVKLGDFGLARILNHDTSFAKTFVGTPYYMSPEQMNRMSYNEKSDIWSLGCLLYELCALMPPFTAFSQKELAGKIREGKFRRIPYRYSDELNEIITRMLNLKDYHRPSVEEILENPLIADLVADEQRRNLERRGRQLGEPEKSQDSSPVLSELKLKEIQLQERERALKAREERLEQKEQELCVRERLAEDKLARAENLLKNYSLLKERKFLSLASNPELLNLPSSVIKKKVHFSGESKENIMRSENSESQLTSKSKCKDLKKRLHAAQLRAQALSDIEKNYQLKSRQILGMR

panel of more than 300 wild-type and mutant kinases (313 kinase panel) (Homo sapiens, UniProt P54764), sequence (P54764 20-986, change not shown): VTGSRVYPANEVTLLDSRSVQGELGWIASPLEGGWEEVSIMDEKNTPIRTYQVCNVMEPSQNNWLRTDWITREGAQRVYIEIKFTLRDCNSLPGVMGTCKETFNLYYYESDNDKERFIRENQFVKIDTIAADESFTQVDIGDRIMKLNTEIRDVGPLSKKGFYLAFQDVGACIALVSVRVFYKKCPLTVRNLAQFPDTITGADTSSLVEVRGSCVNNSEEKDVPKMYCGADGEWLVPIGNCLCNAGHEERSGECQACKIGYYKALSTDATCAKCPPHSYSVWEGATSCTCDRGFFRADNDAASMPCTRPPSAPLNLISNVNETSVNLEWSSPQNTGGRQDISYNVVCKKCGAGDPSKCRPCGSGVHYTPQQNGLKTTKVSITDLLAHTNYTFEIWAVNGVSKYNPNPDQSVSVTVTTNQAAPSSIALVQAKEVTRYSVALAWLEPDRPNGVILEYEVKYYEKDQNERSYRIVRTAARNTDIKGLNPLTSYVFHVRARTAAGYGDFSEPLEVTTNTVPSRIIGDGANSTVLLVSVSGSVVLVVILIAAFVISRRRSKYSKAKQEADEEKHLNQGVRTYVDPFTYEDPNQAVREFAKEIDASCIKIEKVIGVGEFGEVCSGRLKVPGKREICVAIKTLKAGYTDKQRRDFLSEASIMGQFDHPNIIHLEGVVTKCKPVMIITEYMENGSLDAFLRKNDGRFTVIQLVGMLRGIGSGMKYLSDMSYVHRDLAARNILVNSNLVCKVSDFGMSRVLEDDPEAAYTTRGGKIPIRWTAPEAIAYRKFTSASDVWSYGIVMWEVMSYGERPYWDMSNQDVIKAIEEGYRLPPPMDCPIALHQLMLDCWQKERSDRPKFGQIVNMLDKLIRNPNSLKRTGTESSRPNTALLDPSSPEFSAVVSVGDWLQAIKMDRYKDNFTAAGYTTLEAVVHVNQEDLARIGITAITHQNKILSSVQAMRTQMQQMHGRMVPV
panel of more than 300 wild-type and mutant kinases (313 kinase panel) (Homo sapiens, UniProt Q15208), sequence (Q15208 whole entry, change not shown): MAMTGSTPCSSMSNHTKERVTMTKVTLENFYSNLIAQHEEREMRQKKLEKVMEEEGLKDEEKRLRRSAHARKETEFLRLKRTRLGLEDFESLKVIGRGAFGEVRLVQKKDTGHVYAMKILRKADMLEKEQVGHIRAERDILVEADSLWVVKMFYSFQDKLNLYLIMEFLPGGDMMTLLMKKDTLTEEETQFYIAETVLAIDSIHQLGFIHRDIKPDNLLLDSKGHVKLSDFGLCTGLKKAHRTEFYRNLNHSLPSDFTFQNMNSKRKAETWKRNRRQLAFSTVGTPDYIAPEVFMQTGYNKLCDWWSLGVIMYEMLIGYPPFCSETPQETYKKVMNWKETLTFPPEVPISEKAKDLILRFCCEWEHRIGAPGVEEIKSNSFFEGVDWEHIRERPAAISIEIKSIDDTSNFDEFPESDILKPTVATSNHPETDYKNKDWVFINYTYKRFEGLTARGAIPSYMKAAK
panel of more than 300 wild-type and mutant kinases (313 kinase panel) (Homo sapiens, UniProt Q9Y463), sequence (Q9Y463 whole entry, change not shown): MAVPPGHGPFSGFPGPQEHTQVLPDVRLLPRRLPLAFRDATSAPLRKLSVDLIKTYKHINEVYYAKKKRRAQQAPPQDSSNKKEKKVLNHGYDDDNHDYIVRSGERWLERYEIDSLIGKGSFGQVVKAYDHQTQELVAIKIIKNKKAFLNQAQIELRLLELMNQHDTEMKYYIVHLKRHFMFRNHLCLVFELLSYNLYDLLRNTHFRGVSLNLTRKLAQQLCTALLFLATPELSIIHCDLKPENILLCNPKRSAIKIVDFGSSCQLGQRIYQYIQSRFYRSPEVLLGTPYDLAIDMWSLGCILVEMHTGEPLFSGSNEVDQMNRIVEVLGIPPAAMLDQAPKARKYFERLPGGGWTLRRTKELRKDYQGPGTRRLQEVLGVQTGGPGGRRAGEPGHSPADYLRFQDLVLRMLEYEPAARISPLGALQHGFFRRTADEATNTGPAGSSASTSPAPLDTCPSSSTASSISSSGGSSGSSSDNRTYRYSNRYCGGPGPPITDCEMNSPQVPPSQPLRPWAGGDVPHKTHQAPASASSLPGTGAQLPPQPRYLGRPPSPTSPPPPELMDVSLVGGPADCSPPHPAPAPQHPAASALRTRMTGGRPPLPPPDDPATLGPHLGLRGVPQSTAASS
panel of more than 300 wild-type and mutant kinases (313 kinase panel) (Homo sapiens, UniProt Q8N4C8), sequence (Q8N4C8 whole entry, change not shown): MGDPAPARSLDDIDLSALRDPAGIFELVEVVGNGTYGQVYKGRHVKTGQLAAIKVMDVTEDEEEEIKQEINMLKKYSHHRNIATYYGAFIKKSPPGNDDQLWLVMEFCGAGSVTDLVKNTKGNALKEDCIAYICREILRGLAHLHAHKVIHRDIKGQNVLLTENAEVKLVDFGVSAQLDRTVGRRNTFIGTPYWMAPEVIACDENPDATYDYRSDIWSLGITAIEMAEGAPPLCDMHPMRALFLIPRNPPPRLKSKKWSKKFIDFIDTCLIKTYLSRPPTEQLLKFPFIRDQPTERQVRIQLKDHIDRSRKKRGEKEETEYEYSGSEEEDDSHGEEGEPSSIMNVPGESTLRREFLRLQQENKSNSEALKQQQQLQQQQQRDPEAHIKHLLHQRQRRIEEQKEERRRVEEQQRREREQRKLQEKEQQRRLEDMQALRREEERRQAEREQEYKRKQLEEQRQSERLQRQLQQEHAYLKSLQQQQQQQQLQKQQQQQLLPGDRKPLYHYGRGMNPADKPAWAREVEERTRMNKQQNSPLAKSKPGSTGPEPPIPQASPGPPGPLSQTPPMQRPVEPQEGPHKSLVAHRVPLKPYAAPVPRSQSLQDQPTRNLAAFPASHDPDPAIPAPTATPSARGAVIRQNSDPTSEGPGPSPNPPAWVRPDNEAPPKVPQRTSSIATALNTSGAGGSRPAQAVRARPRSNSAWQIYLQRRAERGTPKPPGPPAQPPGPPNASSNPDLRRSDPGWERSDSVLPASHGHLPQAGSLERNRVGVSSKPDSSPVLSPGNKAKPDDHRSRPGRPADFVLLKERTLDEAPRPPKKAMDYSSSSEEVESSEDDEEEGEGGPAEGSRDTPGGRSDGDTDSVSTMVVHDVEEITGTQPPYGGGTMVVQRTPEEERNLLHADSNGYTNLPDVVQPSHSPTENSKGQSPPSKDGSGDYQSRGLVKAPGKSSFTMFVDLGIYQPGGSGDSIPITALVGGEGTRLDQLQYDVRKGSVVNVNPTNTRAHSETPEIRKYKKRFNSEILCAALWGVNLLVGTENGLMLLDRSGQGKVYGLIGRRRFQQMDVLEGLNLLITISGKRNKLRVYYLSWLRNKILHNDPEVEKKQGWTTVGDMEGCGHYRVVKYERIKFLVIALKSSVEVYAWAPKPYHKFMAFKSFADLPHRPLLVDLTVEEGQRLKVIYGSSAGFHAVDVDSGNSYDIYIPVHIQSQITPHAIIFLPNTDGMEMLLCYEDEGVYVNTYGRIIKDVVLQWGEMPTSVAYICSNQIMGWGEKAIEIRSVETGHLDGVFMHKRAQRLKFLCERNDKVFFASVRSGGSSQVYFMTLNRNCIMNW
panel of more than 300 wild-type and mutant kinases (313 kinase panel) (Homo sapiens, UniProt P24723), sequence (P24723 whole entry, change not shown): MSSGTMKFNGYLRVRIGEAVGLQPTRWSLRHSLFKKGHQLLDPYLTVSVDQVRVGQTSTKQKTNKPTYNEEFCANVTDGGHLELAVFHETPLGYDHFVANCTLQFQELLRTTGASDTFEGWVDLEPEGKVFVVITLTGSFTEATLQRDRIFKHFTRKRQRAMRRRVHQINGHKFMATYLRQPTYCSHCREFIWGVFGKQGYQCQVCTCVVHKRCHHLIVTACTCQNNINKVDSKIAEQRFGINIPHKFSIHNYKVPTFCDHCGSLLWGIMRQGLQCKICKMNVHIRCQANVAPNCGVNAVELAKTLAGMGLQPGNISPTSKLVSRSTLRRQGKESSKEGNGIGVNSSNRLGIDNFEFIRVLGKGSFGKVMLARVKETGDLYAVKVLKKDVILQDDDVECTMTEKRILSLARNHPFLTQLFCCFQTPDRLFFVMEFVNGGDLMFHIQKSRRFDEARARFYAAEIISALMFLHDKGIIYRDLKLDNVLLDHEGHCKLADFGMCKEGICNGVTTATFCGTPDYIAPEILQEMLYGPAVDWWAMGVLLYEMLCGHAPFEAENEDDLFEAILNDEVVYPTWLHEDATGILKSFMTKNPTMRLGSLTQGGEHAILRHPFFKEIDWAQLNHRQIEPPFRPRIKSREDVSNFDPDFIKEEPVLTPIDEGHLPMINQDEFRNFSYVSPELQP
panel of more than 300 wild-type and mutant kinases (313 kinase panel) (Homo sapiens, UniProt P22455, N535K), sequence (P22455 22-802 N535K): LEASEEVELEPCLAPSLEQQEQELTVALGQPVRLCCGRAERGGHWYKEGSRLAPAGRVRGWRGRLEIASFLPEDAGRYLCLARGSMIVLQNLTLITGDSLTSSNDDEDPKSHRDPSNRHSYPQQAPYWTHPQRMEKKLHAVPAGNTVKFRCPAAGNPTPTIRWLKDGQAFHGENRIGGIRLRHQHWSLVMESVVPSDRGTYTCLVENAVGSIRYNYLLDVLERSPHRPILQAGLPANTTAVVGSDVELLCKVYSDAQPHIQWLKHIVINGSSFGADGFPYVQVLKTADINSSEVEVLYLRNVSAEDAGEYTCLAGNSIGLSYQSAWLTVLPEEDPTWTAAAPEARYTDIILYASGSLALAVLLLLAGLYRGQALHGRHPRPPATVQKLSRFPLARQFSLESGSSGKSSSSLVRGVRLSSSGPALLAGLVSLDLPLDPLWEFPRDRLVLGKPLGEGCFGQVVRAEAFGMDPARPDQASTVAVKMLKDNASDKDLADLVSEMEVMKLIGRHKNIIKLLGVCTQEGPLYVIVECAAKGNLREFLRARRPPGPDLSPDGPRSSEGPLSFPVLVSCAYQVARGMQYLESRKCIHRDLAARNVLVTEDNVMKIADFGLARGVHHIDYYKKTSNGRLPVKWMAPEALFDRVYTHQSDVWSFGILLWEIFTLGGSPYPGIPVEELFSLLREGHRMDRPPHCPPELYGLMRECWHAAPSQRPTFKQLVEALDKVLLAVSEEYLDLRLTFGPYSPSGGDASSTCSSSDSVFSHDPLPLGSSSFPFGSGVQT

CC(=O)Nc1cccc(-n2c(=O)n(C3CC3)c(=O)c3c(Nc4ccc(I)cc4F)n(C)c(=O)c(C)c32)c1 [trametinib]
%-inhibition of MINK [1]: -1.8%
%-inhibition of NDR1 [2]: -1.68%
%-inhibition of PKCη [3]: -8%
%-inhibition of DYRK1B [4]: 3.34%
%-inhibition of PIK3CA/PIK3R1 [5]: 0.26%
%-inhibition of PKACβ [6]: -5%
%-inhibition of FGFR4(N535K) [7]: -5.47%
%-inhibition of EPHA4 [8]: -5.3%
%-inhibition of TYRO3 [9]: -2.65%
%-inhibition of NEK2 [10]: 2.76%

CO[C@H]1C[C@@H]2CC[C@@H](C)[C@@](O)(O2)C(=O)C(=O)N2CCCC[C@H]2C(=O)O[C@H]([C@H](C)C[C@@H]2CC[C@@H](OCCO)[C@H](OC)C2)CC(=O)[C@H](C)/C=C(\C)[C@@H](O)[C@@H](OC)C(=O)[C@H](C)C[C@H](C)/C=C/C=C/C=C/1C [everolimus]
%-inhibition of MINK [1]: -7.49%
%-inhibition of NDR1 [2]: -7%
%-inhibition of PKCη [3]: 9%
%-inhibition of DYRK1B [4]: -8%
%-inhibition of PIK3CA/PIK3R1 [5]: 22%
%-inhibition of PKACβ [6]: -6%
%-inhibition of FGFR4(N535K) [7]: 9%
%-inhibition of EPHA4 [8]: -2.61%
%-inhibition of TYRO3 [9]: -2.32%
%-inhibition of NEK2 [10]: -7%

CNC(=O)c1cc(Oc2ccc(NC(=O)Nc3ccc(Cl)c(C(F)(F)F)c3)c(F)c2)ccn1 [regorafenib]
%-inhibition of MINK [1]: 24%
%-inhibition of NDR1 [2]: -9%
%-inhibition of PKCη [3]: -9%
%-inhibition of DYRK1B [4]: -7.4%
%-inhibition of PIK3CA/PIK3R1 [5]: 41%
%-inhibition of PKACβ [6]: -0.531%
%-inhibition of FGFR4(N535K) [7]: 62%
%-inhibition of EPHA4 [8]: 92%
%-inhibition of TYRO3 [9]: 34%
%-inhibition of NEK2 [10]: -6.65%
